Earlier results on one compound are cited in patent US10682361B2, “Sustained release bimatoprost, bimatoprost analogs, prostamides and prostaglandins for fat reduction” (ALLERGAN, INC., priority 2013, dated 2020).

In series [1] the test system is adipocytes. Particulars: topical administration.
Series [2] concerns fat. Particulars: topical administration.

Take `CCNC(=O)CCC/C=C\C[C@@H]1[C@@H](/C=C/[C@@H](O)CCc2ccccc2)[C@H](O)C[C@@H]1O` [bimatoprost]: in series [1], the “effect on adipocytes in animal models” value was “effectively prevent apidocyte formation and maturation and to atrophy adipocytes”. In addition, the clinical fat reduction entry in series [2] was “clinical evidence of fat reduction”.
